From patent publication US10485236B2, “Triazole derivatives, intermediates thereof and their use as fungicides” (Bayer CropScience Aktiengesellschaft, priority 2015, dated 2019)

Columns and labels:
Uromyces appendiculatus = assay: Example E: in vivo preventive test on Uromyces appendiculatus (bean rust); conditions: 264 h, 500 ppm of active ingredient, bean plants, preventive spray, evaluated 11 days after inoculation, read-out: efficacy
Method: Example E: In Vivo Preventive Test on Uromyces appendiculatus (Bean Rust) [table] The active ingredients are made soluble and homogenized in a mixture of Dimethyl sulfoxide/Acetone//Tween® 80 and then diluted in water to the desired concentration. The young plants of bean are treated by spraying the active ingredient prepared as described above. Control plants are treated only with an aqueous solution of Acetone/Dimethyl sulfoxide/Tween® 80. After 24 hours, the plants are contaminated by spraying the leaves with an aqueous suspension of Uromyces appendiculatus spores. The contaminated bean plants are incubated for 24 hours at 20° C. and at 100% relative humidity and then for 10 days at 20° C. and at 70-80% relative humidity. The test is evaluated 11 days after the inoculation. 0% means an efficacy which corresponds to that of the control plants while an efficacy of 100% means that no disease is observed.

Septoria tritici = assay: Example C: in vivo preventive test on Septoria tritici (leaf spot on wheat); conditions: Zymoseptoria tritici, 576 h; 500 ppm of active ingredient; wheat plants, preventive spray; evaluated 24 days after inoculation; read-out: efficacy
Method: Example C: In Vivo Preventive Test on Septoria tritici (Leaf Spot on Wheat) [table] The active ingredients are made soluble and homogenized in a mixture of Dimethyl sulfoxide/Acetone//Tween® 80 and then diluted in water to the desired concentration. The young plants of wheat are treated by spraying the active ingredient prepared as described above. Control plants are treated only with an aqueous solution of Acetone/Dimethyl sulfoxide/Tween® 80. After 24 hours, the plants are contaminated by spraying the leaves with an aqueous suspension of Septoria tritici spores. The contaminated wheat plants are incubated for 72 hours at 18° C. and at 100% relative humidity and then for 21 days at 20° C. and at 90% relative humidity. The test is evaluated 24 days after the inoculation. 0% means an efficacy which corresponds to that of the control plants while an efficacy of 100% means that no disease is observed.

Venturia inaequalis = assay: Example H: in vivo preventive test on Venturia test (apples); conditions: 240 h, 100 ppm of active ingredient, preventive spray, evaluated 10 days after inoculation, read-out: efficacy
Method: Example H: In Vivo Preventive Test on Venturia Test (Apples) [table] To produce a suitable preparation of active compound, 1 part by weight of active compound is mixed with the stated amounts of solvent and emulsifier, and the concentrate is diluted with water to the desired concentration. To test for preventive activity, young plants are sprayed with the preparation of active compound at the stated rate of application. After the spray coating has dried on, the plants are inoculated with an aqueous conidia suspension of the causal agent of apple scab (Venturia inaequalis) and then remain for 1 day in an incubation cabinet at approximately 20° C. and a relative atmospheric humidity of 100%. The plants are then placed in a greenhouse at approximately 21° C. and a relative atmospheric humidity of approximately 90%. The test is evaluated 10 days after the inoculation. 0% means an efficacy which corresponds to that of the untreated control, while an efficacy of 100% means that no disease is observed.

Alternaria solani = assay: Example F: in vivo preventive test on Alternaria test (tomatoes); conditions: 72 h, 100 ppm of active ingredient, preventive spray, evaluated 3 days after inoculation, read-out: efficacy
Method: Example F: In Vivo Preventive Test on Alternaria Test (Tomatoes) [table] To produce a suitable preparation of active compound, 1 part by weight of active compound is mixed with the stated amounts of solvent and emulsifier, and the concentrate is diluted with water to the desired concentration. To test for preventive activity, young plants are sprayed with the preparation of active compound at the stated rate of application. After the spray coating has dried on, the plants are inoculated with an aqueous spore suspension of Alternaria solani. The plants are then placed in an incubation cabinet at approximately 20° C. and a relative atmospheric humidity of 100%. The test is evaluated 3 days after the inoculation. 0% means an efficacy which corresponds to that of the untreated control while an efficacy of 100% means that no disease is observed.

[1] = Measurement of LogP values by HPLC on reversed phase columns (EEC directive 79/831 Annex V.A8); assay type: physicochemical; conditions: reversed phase HPLC column
Method in brief: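 Calibrated with straight-chain alkan-2-ones (3–16 carbons) of known LogP, using retention times with linear interpolation between successive alkanones. Where one method gives several LogP values, all are listed, joined by "+". Lambda-max taken from UV spectra (200–400 nm) at chromatographic peak maxima.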

Puccinia triticina = assay: Example K: in vivo preventive Puccinia triticina test (wheat); conditions: 192 h, 500 ppm of active ingredient, preventive spray, evaluated 8 days after inoculation, read-out: efficacy
Method: Example K: In Vivo Preventive Puccinia Triticina Test (Wheat)
To produce a suitable preparation of active compound, 1 part by weight of active compound or active compound combination is mixed with the stated amounts of solvent and emulsifier, and the concentrate is diluted with water to the desired concentration.
To test for preventive activity, young plants are sprayed with the preparation of active compound or active compound combination at the stated rate of application.
After the spray coating has been dried, the plants are sprayed with a spore suspension of Puccinia triticina. The plants remain for 48 hours in an incubation cabinet at approximately 20° C. and a relative atmospheric humidity of approximately 100%.
The plants are placed in the greenhouse at a temperature of approximately 20° C. and a relative atmospheric humidity of approximately 80%.
The test is evaluated 8 days after the inoculation. 0% means an efficacy which corresponds to that of the untreated control, while an efficacy of 100% means that no disease is observed.

Phakopsora pachyrhizi = assay: Example G: in vivo preventive test on Phakopsora test (soybeans); conditions: 168 h, 100 ppm of active ingredient, preventive spray, evaluated 7 days after inoculation, read-out: efficacy
Method: Example G: In Vivo Preventive Test on Phakopsora Test (Soybeans) [table] To produce a suitable preparation of active compound, 1 part by weight of active compound is mixed with the stated amounts of solvent and emulsifier, and the concentrate is diluted with water to the desired concentration. To test for preventive activity, young plants are sprayed with the preparation of active compound at the stated rate of application. After the spray coating has dried on, the plants are inoculated with an aqueous spore suspension of the causal agent of soybean rust (Phakopsora pachyrhizi) and stay for 24 h without light in an incubation cabinet at approximately 24° C. and a relative atmospheric humidity of 95%. The plants remain in the incubation cabinet at approximately 24° C. and a relative atmospheric humidity of approximately 80% and a day/night interval of 12 h. The test is evaluated 7 days after the inoculation. 0% means an efficacy which corresponds to that of the untreated control, while an efficacy of 100% means that no disease is observed.

[2] = method [a]: LC-UV, acidic range, 0.1% formic acid in water and acetonitrile as eluent

SMILES | chromatographic logP ([1]; method [a], compounds of formula (VII), Table 4) | chromatographic logP [1, 2] | chromatographic logP ([1]; method [b]: LC-UV, neutral range, 0.001 molar ammonium acetate solution in water and acetonitrile as eluent) | pest or weed control at 500 ppm (Uromyces appendiculatus) [%] | pest or weed control at 500 ppm (Septoria tritici) [%] | pest or weed control at 100 ppm (Venturia inaequalis) [%] | pest or weed control at 100 ppm (Alternaria solani) [%] | pest or weed control at 500 ppm (Puccinia triticina) [%] | pest or weed control at 100 ppm (Phakopsora pachyrhizi) [%]
O=C(Cn1cncn1)c1ccc(Oc2ccc(Cl)cc2)nc1C(F)(F)F [VII.01, 1-[6-(4-chlorophenoxy)-2-(trifluoromethyl)-3-pyridyl]-2-(1,2,4-triazol-1-yl)ethanone] | 2.92 |  |  | 90 to 100 | 80 to 89 | 90 to 100 | 80 to 89 | 90 to 100 | 80 to 89
C[C@@](O)(Cn1cncn1)c1cnc(Oc2ccc(Cl)cc2)cc1C(F)(F)F [I.45] |  | 2.84 |  | 90 to 100 | 90 to 100 | 90 to 100 | 90 to 100 | 90 to 100 | 90 to 100
OC(Cn1cncn1)c1cnc(Oc2ccc(C(F)(F)F)cc2)cc1C(F)(F)F (stereo not drawn) [I.47] |  | 2.84 |  | 90 to 100 | 90 to 100 | 90 to 100 | 90 to 100 | 90 to 100 | 90 to 100
Cc1ccc(Oc2ccc(C(O)Cn3cncn3)c(Cl)n2)cc1Cl (stereo not drawn) [I.16] |  | 2.73 |  | 90 to 100 | 80 to 89 | 90 to 100 | 90 to 100 |  | 90 to 100
OC(Cn1cncn1)c1ccc(Oc2ccc(Cl)cc2)nc1Cl (stereo not drawn) [I.14] |  | 2.42 |  | 90 to 100 | 90 to 100 | 90 to 100 | 90 to 100 | 90 to 100 | 90 to 100
CC(O)(Cn1cncn1)c1ccc(Oc2ccc(C(F)F)cc2)nc1Cl (stereo not drawn) [I.39] |  | 2.41 |  | 90 to 100 | 90 to 100 | 80 to 89 | 90 to 100 | 90 to 100 | 90 to 100
CC(O)(Cn1cncn1)c1ccc(Oc2ccc(Cl)cc2)nc1C(F)(F)F (stereo not drawn) [I.01, 2-[6-(4-chlorophenoxy)-2-(trifluoromethyl)-3-pyridyl]-1-(1,2,4-triazol-1-yl)propan-2-ol] |  | 2.88 |  | 90 to 100 | 90 to 100 | 90 to 100 | 90 to 100 | 90 to 100 | 90 to 100
OC(Cn1cncn1)c1cnc(Oc2ccc(S(F)(F)(F)(F)F)cc2)cc1C(F)(F)F (stereo not drawn) [I.36] |  | 3.15 |  | 90 to 100 | 80 to 89 | 90 to 100 | 90 to 100 | 90 to 100 | 90 to 100

Now from value to compound, other results behind:

chromatographic logP ([1]; method [a], compounds of formula (VII), Table 4) | chromatographic logP [1, 2] | chromatographic logP ([1]; method [b]: LC-UV, neutral range, 0.001 molar ammonium acetate solution in water and acetonitrile as eluent) | SMILES | pest or weed control at 500 ppm (Uromyces appendiculatus) [%] | pest or weed control at 500 ppm (Septoria tritici) [%] | pest or weed control at 100 ppm (Venturia inaequalis) [%] | pest or weed control at 100 ppm (Alternaria solani) [%] | pest or weed control at 500 ppm (Puccinia triticina) [%] | pest or weed control at 100 ppm (Phakopsora pachyrhizi) [%]
 | 2.1 | 2.06 | CC(O)(Cn1cncn1)c1cnc(Oc2ccccc2)cc1Cl (stereo not drawn) [I.05] | 90 to 100 | 90 to 100 | 90 to 100 | 90 to 100 | 90 to 100 | 90 to 100
 | 3.17 |  | CC(O)(Cn1cncn1)c1ccc(Oc2ccc(S(F)(F)(F)(F)F)cc2)nc1Cl (stereo not drawn) [I.35] | 90 to 100 | 90 to 100 | 90 to 100 | 90 to 100 | 90 to 100 | 70 to 79
 | 2.9 |  | CC(O)(Cn1cncn1)c1cnc(Oc2ccc(Cl)cc2)cc1C(F)(F)F (stereo not drawn) [I.02, 2-[6-(4-chlorophenoxy)-4-(trifluoromethyl)-3-pyridyl]-1-(1,2,4-triazol-1-yl)propan-2-ol] | 90 to 100 | 80 to 89 | 90 to 100 | 90 to 100 | 90 to 100 | 90 to 100
 | 2.7 |  | OC(Cn1cncn1)c1ccc(Oc2ccc(Cl)cc2)nc1C(F)(F)F (stereo not drawn) [I.03, 1-[6-(4-chlorophenoxy)-2-(trifluoromethyl)-3-pyridyl]-2-(1,2,4-triazol-1-yl)ethanol] | 90 to 100 | 90 to 100 | 90 to 100 | 80 to 89 | 90 to 100 | 90 to 100
 | 3.26 |  | OC(Cn1cncn1)(c1ccc(Oc2ccc(Cl)cc2)nc1C(F)(F)F)C1CC1 (stereo not drawn) [I.91, 1-[6-(4-chlorophenoxy)-2-(trifluoromethyl)-3-pyridyl]-1-cyclopropyl-2-(1,2,4-triazol-1-yl)ethanol] | 90 to 100 | 90 to 100 | 90 to 100 |  | 90 to 100 | 90 to 100
